Source: patent US9302999B2, “Substituted triazoles as herbicides” (E. I. DU PONT DE NEMOURS AND COMPANY, priority 2012, dated 2016)
Where two headings read alike, the source gives them in different places.

Columns and labels:
Assay type in all cases: in vivo
[1] = test system: morningglory (Ipomoea spp.); assay: Test A pre-/postemergence: morningglory; settings: for pest or weed control at 125 g/ha / pest or weed control at 500 g/ha: Ipomoea, 240 h
Summary of the method: (§1)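 Seeds were sown in loam/sand blend and sprayed preemergence (directed soil spray) and, simultaneously, postemergence at 2–10 cm, one- to two-leaf stage, using compounds in non-phytotoxic solvent with surfactant. After ~10 days in greenhouse, injury was rated visually versus untreated controls, 0 (no effect) to 100 (complete control).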

[2] = test system: velvetleaf (Abutilon theophrasti); assay: Test A pre-/postemergence: velvetleaf; settings: for pest or weed control at 125 g/ha / pest or weed control at 500 g/ha: Abutilon theophrasti, 240 h
Summary of the method: as §1

[3] = test system: blackgrass (Alopecurus myosuroides); assay: Test C pre-/postemergence: blackgrass
From the text: (§2) Seeds of plant species selected from blackgrass (Alopecurus myosuroides), bromegrass, downy (downy bromegrass, Bromus tectorum), foxtail, green (green foxtail, Setaria viridis), ryegrass, Italian (Italian ryegrass, Lolium multiflorum), winter wheat (Triticum aestivum), wild oat (Avena fatua), galium (catchweed bedstraw, Galium aparine), bermudagrass (Cynodon dactylon), surinam grass (Brachiaria decumbens), cocklebur (common cocklebur, Xanthium strumarium), corn (Zea mays), large crabgrass (Digitaria sanguinalis), woolly cupgrass (Eriochloa villosa), foxtail, giant (giant foxtail, Setaria faberii), goosegrass (Eleusine indica), johnsongrass (Sorghum halepense), kochia (Kochia scoparia), lambsquarters (Chenopodium album), morningglory (Ipomoea coccinea), nightshade (eastern black nightshade, Solanum ptycanthum), nutsedge, yellow (yellow nutsedge, Cyperus esculentus), pigweed (Amaranthus retroflexus), ragweed (common ragweed, Ambrosia elation), soybean (Glycine max), common (oilseed) sunflower (Helianthus annuus), Russian thistle (Salsola kali) and velvetleaf (Abutilon theophrasti) were planted into a blend of loam soil and sand and treated preemergence with test chemicals formulated in a non-phytotoxic solvent mixture which included a surfactant.
(§3) At the same time, plants selected from these crop and weed species and also barley (winter barley, Hordeum vulgare), canarygrass (Phalaris minor), chickweed (common chickweed, Stellaria media) windgrass (Apera spica-venti) and deadnettle (henbit deadnettle, Lamium amplexicaule) were planted in pots containing Redi-Earth® planting medium (Scotts Company, 14111 Scottslawn Road, Marysville, Ohio 43041) comprising spaghnum peat moss, vermiculite, wetting agent and starter nutrients and treated with postemergence applications of test chemicals formulated in the same manner. Plants ranged in height from 2 to 18 cm (1- to 4-leaf stage) for postemergence treatments.
(§4) Treated plants and controls were maintained in a greenhouse for 13 to 15 days, after which time all species were compared to controls and visually evaluated. Plant response ratings, summarized in Table C, are based on a scale of 0 to 100 where 0 is no effect and 100 is complete control. A dash (-) response means no test result.

wild oat (Avena fatua) = assay: Test C pre-/postemergence: wild oat; settings: Postemergence
From the text: as §2, §3, §4

[4] = test system: galium (catchweed bedstraw, Galium aparine); assay: Test C pre-/postemergence: galium
From the text: as §2, §3, §4

[5] = test system: large crabgrass (Digitaria sanguinalis); assay: Test C pre-/postemergence: large crabgrass
From the text: as §2, §3, §4

[6] = test system: johnsongrass (Sorghum halepense); assay: Test C pre-/postemergence: johnsongrass
From the text: as §2, §3, §4

kochia (Kochia scoparia) = assay: Test C pre-/postemergence: kochia; settings: Postemergence
From the text: as §2, §3, §4

[7] = test system: pigweed (Amaranthus retroflexus); assay: Test C pre-/postemergence: pigweed
From the text: as §2, §3, §4

[8] = test system: ragweed (common ragweed, Ambrosia elation); assay: Test C pre-/postemergence: ragweed; settings: Postemergence
From the text: as §2, §3, §4

[9] = test system: velvetleaf (Abutilon theophrasti); assay: Test C pre-/postemergence: velvetleaf
From the text: as §2, §3, §4

corn (Zea mays) = assay: Test C pre-/postemergence: corn; settings: Preemergence
From the text: as §2, §3, §4

[10] = post-emergence, Postemergence, 125 g ai/ha, 0 to 100 scale, 0 is no effect, 100 is complete control, read-out: Morningglory plant response rating
[11] = post-emergence, Postemergence, 500 g ai/ha, visual rating on 0 to 100 scale (0 no effect, 100 complete control), approximately ten days, read-out: Morningglory plant response rating
[12] = post-emergence, Postemergence, 125 g ai/ha, 0 to 100 scale, 0 is no effect, 100 is complete control, read-out: Velvetleaf plant response rating
[13] = post-emergence, Postemergence, 500 g ai/ha, visual rating on 0 to 100 scale (0 no effect, 100 complete control), approximately ten days, read-out: Velvetleaf plant response rating
[14] = Postemergence, 125 g ai/ha, 0 to 100 scale, 0 is no effect, 100 is complete control
[15] = Postemergence, 500 g ai/ha, visual rating on 0 to 100 scale (0 no effect, 100 complete control), approximately ten days
[16] = Preemergence, 125 g ai/ha, 0 to 100 scale where 0 is no effect and 100 is complete control
[17] = Preemergence, 500 g ai/ha, 0 to 100 scale (0 no effect, 100 complete control)
[18] = Postemergence, 31 g ai/ha, scale 0 to 100 (0 no effect, 100 complete control)
[19] = Postemergence, 62 g ai/ha, scale 0 to 100 (0 no effect, 100 complete control)
[20] = Postemergence, 125 g ai/ha, scale 0 to 100, 0 no effect, 100 complete control
[21] = Postemergence, 250 g ai/ha, scale 0 to 100
[22] = 31 g ai/ha, scale 0 to 100 (0 no effect, 100 complete control)
[23] = 62 g ai/ha, scale 0 to 100 (0 no effect, 100 complete control)
[24] = 125 g ai/ha, scale 0 to 100, 0 no effect, 100 complete control
[25] = Postemergence, 500 g ai/ha, 0 to 100 scale, 0 is no effect, 100 is complete control
[26] = Preemergence, 16 g ai/ha, scale 0 (no effect) to 100 (complete control)
[27] = Preemergence, 31 g ai/ha, scale 0 (no effect) to 100 (complete control)
[28] = Preemergence, 62 g ai/ha, scale of 0 to 100, 0 is no effect, 100 is complete control
[29] = Preemergence, 125 g ai/ha, scale 0 to 100, 0 no effect, 100 complete control

## COc1nn(-c2ccc(C(F)(F)F)cc2)nc1Cn1ccc(C(F)(F)F)n1 [Compound 17, 4-methoxy-2-[4-(trifluoromethyl)phenyl]-5-[[3-(trifluoromethyl)-1H-pyrazol-1-yl]methyl]-2H-1,2,3-triazole]
[1]; [10]
  pest or weed control at 125 g/ha: 50%
[1]; [11]
  pest or weed control at 500 g/ha: 90%
[1]; pre-emergence, Preemergence, 125 g ai/ha, 0 to 100 scale (0 no effect, 100 complete control), read-out: Plant response rating, Morningglory
  pest or weed control at 125 g/ha: 0%
[1]; pre-emergence, Preemergence, 500 g ai/ha, 0 to 100 scale, 0 is no effect, 100 is complete control, read-out: Plant response rating, Morningglory
  pest or weed control at 500 g/ha: 50%
[2]; [12]
  pest or weed control at 125 g/ha: 90%
[2]; [13]
  pest or weed control at 500 g/ha: 100%
[2]; pre-emergence, Preemergence, 125 g ai/ha, 0 to 100 scale (0 no effect, 100 complete control), read-out: Plant response rating, Velvetleaf
  pest or weed control at 125 g/ha: 30%
[2]; pre-emergence, Preemergence, 500 g ai/ha, 0 to 100 scale, 0 is no effect, 100 is complete control, read-out: Plant response rating, Velvetleaf
  pest or weed control at 500 g/ha: 40%

## CCc1nn(-c2ccc(C(F)(F)F)cc2)nc1Oc1cccc(OC(F)(F)F)c1 [Compound 125, 4-ethyl-5-[3-(trifluoromethoxy)phenoxy]-2-[4-(trifluoromethyl)phenyl]-2H-1,2,3-triazole]
[1]; [10]
  pest or weed control at 125 g/ha: 60%
[1]; [11]
  pest or weed control at 500 g/ha: 100%
[1]; pre-emergence, Preemergence, 125 g ai/ha, 0 to 100 scale where 0 is no effect and 100 is complete control, read-out: Plant response rating, Morningglory
  pest or weed control at 125 g/ha: 0%
[1]; pre-emergence, Preemergence, 500 g ai/ha, 0 to 100 scale (0 no effect, 100 complete control), read-out: Plant response rating, Morningglory
  pest or weed control at 500 g/ha: 10%
[2]; [12]
  pest or weed control at 125 g/ha: 30%
[2]; [13]
  pest or weed control at 500 g/ha: 70%
[2]; pre-emergence, Preemergence, 125 g ai/ha, 0 to 100 scale where 0 is no effect and 100 is complete control, read-out: Plant response rating, Velvetleaf
  pest or weed control at 125 g/ha: 0%
[2]; pre-emergence, Preemergence, 500 g ai/ha, 0 to 100 scale (0 no effect, 100 complete control), read-out: Plant response rating, Velvetleaf
  pest or weed control at 500 g/ha: 50%

## Cc1nn(-c2ccnc(C(F)(F)F)c2)nc1Cc1ccnc(C(F)(F)F)c1 [Compound 137]
[1]; [14]
  Plant response rating, Morningglory: 80
[1]; [15]
  Morningglory plant response rating: 100
[1]; [16]
  Plant response rating, Morningglory: 40
[1]; [17]
  Plant response rating, Morningglory: 60
[2]; [14]
  Plant response rating, Velvetleaf: 80
[2]; [15]
  Velvetleaf plant response rating: 100
[2]; [16]
  Plant response rating, Velvetleaf: 20
[2]; [17]
  Plant response rating, Velvetleaf: 20
[3]; [18]
  Plant response rating, Blackgrass: 10
[3]; [19]
  Plant response rating, Blackgrass: 30
[3]; [20]
  Plant response rating, Blackgrass: 35
[3]; [21]
  Plant response rating, Blackgrass: 60
Wild oat (Avena fatua); [22]
  Plant response rating, Oat, Wild: 45
Wild oat (Avena fatua); [23]
  Plant response rating, Oat, Wild: 50
Wild oat (Avena fatua); [24]
  Plant response rating, Oat, Wild: 50
Wild oat (Avena fatua); 250 g ai/ha, scale 0 to 100
  Plant response rating, Oat, Wild: 70
[4]; [18]
  Plant response rating, Galium: 45
[4]; [19]
  Plant response rating, Galium: 70
[4]; [20]
  Plant response rating, Galium: 70
[4]; [21]
  Plant response rating, Galium: 70
[5]; [18]
  Plant response rating, Crabgrass, Large: 15
[5]; [19]
  Plant response rating, Crabgrass, Large: 40
[5]; [20]
  Plant response rating, Crabgrass, Large: 40
[5]; [21]
  Plant response rating, Crabgrass, Large: 65
[6]; [18]
  Plant response rating, Johnsongrass: 5
[6]; [19]
  Plant response rating, Johnsongrass: 40
[6]; [20]
  Plant response rating, Johnsongrass: 80
[6]; [21]
  Plant response rating, Johnsongrass: 90
Kochia (Kochia scoparia); [22]
  Plant response rating, Kochia: 90
Kochia (Kochia scoparia); [23]
  Plant response rating, Kochia: 90
Kochia (Kochia scoparia); [24]
  Plant response rating, Kochia: 90
Kochia (Kochia scoparia); 250 g ai/ha, scale 0 to 100
  Plant response rating, Kochia: 90
[7]; [18]
  Plant response rating, Pigweed: 98
[7]; [19]
  Plant response rating, Pigweed: 100
[7]; [20]
  Plant response rating, Pigweed: 100
[7]; [21]
  Plant response rating, Pigweed: 100
[8]; [22]
  Plant response rating, Ragweed: 65
[8]; [24]
  Plant response rating, Ragweed: 75
[8]; 250 g ai/ha, scale 0 to 100
  Plant response rating, Ragweed: 85
[9]; [18]
  Plant response rating, Velvetleaf: 35
[9]; [19]
  Plant response rating, Velvetleaf: 55
[9]; [20]
  Plant response rating, Velvetleaf: 55
[9]; [21]
  Plant response rating, Velvetleaf: 70

## CCOc1nn(-c2ccc(Br)cc2)nc1Cc1ccnc(C(F)(F)F)c1 [Compound 189]
[1]; [14]
  Plant response rating, Morningglory: 60
[1]; [25]
  Morningglory plant response rating: 80
[1]; [16]
  Plant response rating, Morningglory: 20
[1]; [17]
  Plant response rating, Morningglory: 30
[2]; [14]
  Plant response rating, Velvetleaf: 70
[2]; [25]
  Velvetleaf plant response rating: 90
[2]; [16]
  Plant response rating, Velvetleaf: 20
[2]; [17]
  Plant response rating, Velvetleaf: 60
[3]; [26]
  Plant response rating, Blackgrass: 75
[3]; [27]
  Plant response rating, Blackgrass: 90
[3]; [28]
  Plant response rating, Blackgrass: 100
[3]; [29]
  Plant response rating, Blackgrass: 100
[4]; [26]
  Plant response rating, Galium: 80
[4]; [27]
  Plant response rating, Galium: 80
[4]; [28]
  Plant response rating, Galium: 80
[4]; [29]
  Plant response rating, Galium: 95
Corn (Zea mays); 16 g ai/ha, scale 0 (no effect) to 100 (complete control)
  Plant response rating, Corn: 5
Corn (Zea mays); 31 g ai/ha, scale 0 (no effect) to 100 (complete control)
  Plant response rating, Corn: 5
Corn (Zea mays); 62 g ai/ha, scale of 0 to 100, 0 is no effect, 100 is complete control
  Plant response rating, Corn: 15
Corn (Zea mays); [24]
  Plant response rating, Corn: 20
[5]; [26]
  Plant response rating, Crabgrass, Large: 98
[5]; [27]
  Plant response rating, Crabgrass, Large: 98
[5]; [28]
  Plant response rating, Crabgrass, Large: 100
[5]; [29]
  Plant response rating, Crabgrass, Large: 100
[6]; [26]
  Plant response rating, Johnsongrass: 30
[6]; [27]
  Plant response rating, Johnsongrass: 50
[6]; [28]
  Plant response rating, Johnsongrass: 85
[6]; [29]
  Plant response rating, Johnsongrass: 85
[7]; [26]
  Plant response rating, Pigweed: 85
[7]; [27]
  Plant response rating, Pigweed: 98
[7]; [28]
  Plant response rating, Pigweed: 100
[7]; [29]
  Plant response rating, Pigweed: 100
[9]; [26]
  Plant response rating, Velvetleaf: 10
[9]; [27]
  Plant response rating, Velvetleaf: 15
[9]; [28]
  Plant response rating, Velvetleaf: 40
[9]; [29]
  Plant response rating, Velvetleaf: 60
